In US20200246298A1, “Composition for Preventing or Treating Asthma Comprising Fatty Acid as Active Ingredient” (Dongshin University Industry-Academy Cooperation, priority 2019, published 2020):

Columns and labels:
Type in all cases: in vivo, BALB/c mice
IL-13 = assay: RT-PCR analysis of lung, OVA-induced asthma; details: palmitic acid 5, 25, 50 mg/kg oral, FIG. 27
Method: (§1) In test groups, the animals determined to be healthy during the acclimation period were ranked by measuring the weight, and were randomly grouped so that the average weight of each group was uniform. The animals were divided into a total of 9 groups: a control group; a control group with OVA-induced asthma; a positive control group; groups administered with each of 50 mg/kg, 125 mg/kg and 250 mg/kg of oleic acid; and groups administered with each of 5 mg/kg, 25 mg/kg and 50 mg/kg of palmitic acid. The animals were sensitized via intraperitoneal injection of OVA once a week for 2 weeks after the acclimation period. During 5 days of week 3, dexamethasone (DEX) and the test substances oleic acid and palmitic acid were orally administered in the morning and 5% OVA solution was inhaled in the afternoon. The test substance was orally administered in an amount of 28 μL per weight (g) of the experimental animal, and OVA for sensitization was administered in a constant amount regardless of the weight. After 5 days of administration, autopsy was performed the next day.
(§2) In order to evaluate changes in the cDNA levels of IFN-γ, IL-12p40, IL-4, IL-5, IL-13, TNF-α, and IL-6, which are related to asthma induction, RT-PCR analysis was performed as in a previous study protocol (Lee et al., 2017). Total RNA was extracted from the lung using the RNeasy Mini Kit (Qiagen, Hilden, Germany) according to the manufacturer's instructions. Total RNA (100 ng) was used as a template for the reaction.
(§3) The RT-PCR cycles consisted of denaturation at 95° C. for 5 sec and annealing/extension at 65° C. for 30 sec for 40 cycles. The results were obtained using an Axioscope A1 (Carl Zeiss, Gottingen, Germany).

IL-6 = assay: RT-PCR analysis of lung, OVA-induced asthma; details: palmitic acid 5, 25, 50 mg/kg oral, FIG. 27
Method: as §1, §2, §3

TNF-α = assay: RT-PCR analysis of lung, OVA-induced asthma; details: palmitic acid 5, 25, 50 mg/kg oral, FIG. 27
Method: as §1, §2, §3

mucus = assay: PAS staining of lung tissue, OVA-induced asthma; details: 5 days, vs OVA-sensitized group
Method: as §1
Storage of tissue: ½ of the autopsy tissue was frozen quickly in liquid nitrogen, stored in an ultralow-temperature freezer or liquid nitrogen container (about −75 ° C.), and used for PCR/Western blotting, and the remaining ½ was stored in 10% formalin solution and used for histopathology and immunohistochemistry (IHC). […]

[1] = tested on: WBC cells, eosinophils, neutrophils, lymphocytes and monocytes in BALF; assay: Blood cell analysis in BALF of mice with OVA-induced asthma; details: for proliferation of leukocytes, neutrophils, lymphocytes and monocytes in BALF and serum: summary statement, ovalbumin-induced asthma
Method: This experiment was performed in order to examine the anti-asthmatic effects of fatty acids after inducing asthma in experimental animals by ovalbumin (OVA). Experimental animals used in the experiment were chosen because of the accumulated abundant test data and their ease of analysis and evaluation of experimental results. BALB/c mice, which are specific pathogen […] (SPF) mice, were chosen based on the related literature. Experimental animals were provided in the minimum number so as to be able to analyze experimental results and were divided into a total of 9 groups according to the substance to be administered, and each group consisted of 8 animals. […] In test groups, the animals determined to be healthy during the acclimation period were ranked by measuring the weight, and were randomly grouped so that the average weight of each group was uniform. The animals were divided into a total of 9 groups: a control group; a control group with OVA-induced asthma; a positive control group; groups administered with each of 50 mg/kg, 125 mg/kg and 250 mg/kg of oleic acid; and groups administered with each of 5 mg/kg, 25 mg/kg and 50 mg/kg of palmitic acid. The animals were sensitized via intraperitoneal injection of OVA once a week for 2 weeks after the acclimation period. During 5 days of week 3, dexamethasone (DEX) and the test substances oleic acid and palmitic acid were orally administered in the morning and 5% OVA solution was inhaled in the afternoon. The test substance was orally administered in an amount of 28 μL per weight (g) of the experimental animal, and OVA for sensitization was administered in a constant amount regardless of the weight. After 5 days of administration, autopsy was performed the next day. Intraperitoneal administration: based on the related literature, 20 μg OVA+1 mg aluminum hydroxide+500 μL/head of normal saline were administered. For a total of 50 animals to be administered, 1000 μg OVA+50 mg aluminum hydroxide+25 mL of normal saline were prepared. The animals were sensitized by intraperitoneal injection once a week for 2 weeks, and injected with the test substance by a 1 mL syringe. Oral administration: the control group and the asthma-induced control group were administered with saline, and oleic acid and palmitic acid were used in dissolved in saline at various concentrations. Dexamethasone was dissolved in saline by stirring and prepared according to a final dose. All preparations were prepared on the day of administration. Inhalation: a solution containing 1 g OVA+20 mL normal saline (5% OVA solution) was prepared, stirred and administered. A forced inhalation was performed using a nebulizer (OMRON, NE-U17) for 5 days, and systemic exposure was performed using an inhalation exposure chamber. Collection of bronchoalveolar lavage fluid (BALF): the anesthetized animal tissue was opened with tweezers to secure the trachea, and then a surgical thread was placed underneath and loosely tied, and the trachea was slightly cut with scissors. Then, 0.2 mL of PBS was placed into a syringe with the needle removed, and the syringe was inserted into a sonde and then injected into the trachea. After injection, BALF was collected by injecting PBS again. 0.2 mL of BALF was collected three times in the same manner. The first BALF was placed in tube No. 1, the second and third BALFs were placed in tube No. 2. The blood cell analysis in BALF were performed (Lee et al., 2017; Bang et al., 2015). One day after the final treatment, the mice were anesthetized with intraperitoneal injections of 50 mg/kg Zoletin (Virbac, Fort Worth, Tex., USA), and their tracheas were cannulated with disposable animal feeding needles. Lavages were performed with three 0.4 ml aliquots of cold phosphate-buffered saline (PBS). The BALF samples were collected and immediately centrifuged at 3000 rpm for 5 minutes at 4° C. (Sorvall Legend Micro 17R, Thermo Fisher Scientific, Inc. Marietta, Ohio, USA). […]

CCCCCCCCCCCCCCCC(=O)O [palmitic acid]
Th2-related cytokine IL-13 (cDNA level, RT-PCR) (IL-13): dose-dependently decreased
Th17-related cytokine IL-6 (cDNA level, RT-PCR) (IL-6): dose-dependently decreased
Th17-related cytokine TNF-α (cDNA level, RT-PCR) (TNF-α): dose-dependently decreased
mucus (PAS staining) (mucus; palmitic acid 5, 25, 50 mg/kg oral, FIG. 18): dose-dependently decreased
number of differential cells in BALF ([1]; palmitic acid 5, 25, 50 mg/kg oral, 5 days, FIG. 7): dose-dependently decreased
number of WBC cells ([1]; palmitic acid 5, 25, 50 mg/kg oral, 5 days, vs OVA-sensitized group, FIG. 8): dose-dependently decreased
number of neutrophils (NEs) ([1]; palmitic acid 5, 25, 50 mg/kg oral, 5 days, vs OVA-sensitized group, FIG. 10): dose-dependently decreased
number of monocytes (MOs) ([1]; palmitic acid 5, 25, 50 mg/kg oral, 5 days, vs OVA-sensitized group, FIG. 12): dose-dependently decreased
proliferation of leukocytes, neutrophils, lymphocytes and monocytes in BALF and serum [1]: inhibit

CCCCCCCC/C=C\CCCCCCCC(=O)O [oleic acid]
mucus (PAS staining) (mucus; oleic acid 50, 125, 250 mg/kg oral, FIG. 17): dose-dependently decreased
number of differential cells in BALF ([1]; oleic acid 50, 125, 250 mg/kg oral, 5 days, FIG. 1): dose-dependently decreased
number of WBC cells ([1]; oleic acid 50, 125, 250 mg/kg oral, 5 days, vs OVA-sensitized group, FIG. 2): dose-dependently decreased
number of eosinophils (EOs) ([1]; oleic acid 50, 125, 250 mg/kg oral, 5 days, vs OVA-sensitized group, FIG. 3): dose-dependently decreased
number of neutrophils (NEs) ([1]; oleic acid 50, 125, 250 mg/kg oral, 5 days, vs OVA-sensitized group, FIG. 4): dose-dependently decreased
number of lymphocytes (LYs) ([1]; oleic acid 50, 125, 250 mg/kg oral, 5 days, vs OVA-sensitized group, FIG. 5): dose-dependently decreased
number of monocytes (MOs) ([1]; oleic acid 50, 125, 250 mg/kg oral, 5 days, vs OVA-sensitized group, FIG. 6): dose-dependently decreased
proliferation of leukocytes, neutrophils, lymphocytes and monocytes in BALF and serum [1]: inhibit
